Reference: patent US20070208087A1, “Compounds, compositions and methods for the treatment of inflammatory diseases” (priority 2001, published 2007)
“And” between values parts separate entries of the source, which are not always exact repeats. Equal entries are not always repeated. Where two headings read alike, the source gives them in different places.

Columns and labels:
Type in all cases: cell-based
[1] = test system: EOC 13.31 microglial cells; experiment: NO release inhibition screen in LPS/IFNγ stimulated microglia, Griess reaction at 48 hours (Example 7); conditions: for μM NO release Avg / % inhibition / inhibition at 50 µM: 50 uM + 10 μg/ml LPS/10 ng/ml IFNγ, 48 hours; for % inhibition: 50 µM; for inhibition at 50 µM: Microglia, 48 h
Method: In this experiment, additional bis- and tris-dihydroxyaryl compounds were screened for their ability to inhibit nitric oxide release from microglial cells. Microglial cells stimulated with LPS/IFNγ release nitric oxide. […] This is a continuation of screening experiments. EOC 13.31 microglial cells were plated into 96 well plates. At 24 hours and at confluency, cells were treated with 10 μg/ml LPS/10 ng/ml IFNγ+50 uM bis- and tris-dihydroxyaryl compounds.

microglia = experiment: Ranking of NO release inhibition (Example 12); conditions: Microglia, ranking table
From the text: The bis- and tris-dihydroxyaryl compounds were ranked in order of effectiveness for the inhibition of NO release as set out in Table 8.

[2] = test system: TNF-α release from microglia; experiment: TNF-α release from LPS/IFNγ stimulated microglia, TNF-α ELISA (Example 11); conditions: for % inhibition: individual replicates; for inhibition at 50 µM: Microglia; for TNF-α ELISA raw reading (not NO; the printed μM unit is unsupported): 3 replicates
Method: Also, bis- and tris-dihydroxyaryl compound's ability to inhibit NO release strongly supports their interference with the inflammatory cascade and utlimately inhibition of inflammation. Microglia cells were plated at 1×10^5 cells/ml into 96 well plates. At day three, they were treated with 50 μM bis- and tris-dihydroxyaryl compound for 1 hour and then exposed to 10 μg/ml LPS+10 ng/ml IFNγ for 24 hours. 10 μl of media was removed and stored at −80° until TNF-α ELISA assays were performed. Samples were diluted 1:50 before running the TNF-α ELISA (kit commercially available from Sigma).

[3] = test system: EOC 13.31 microglia cells; experiment: Inhibition of NO release from microglia following 24 hours pretreatment (Example 10); conditions: for inhibition at 50 µM: Microglia
Method: This experiment was designed to determine if pretreatment for 24 hours with bis- and tris-dihydroxyaryl compounds changes NO inhibition previously observed with concurrent exposure of bis- and tris-dihydroxyaryl compounds. […] This study seeks to determine if pretreatment with bis- and tris-dihydroxyaryl compounds increases NO release inhibition. EOC 13.31 microglia cells were plated at 1×10^6 cells/ml in 96 well plates. After 48 hours, confluent cells were exposed to 50 μM compound (stock 10 mM in DMSO) prepared in fresh cell culture media. After 24 hours, 10 μg/ml LPS and 10 ng/ml IFNγ was added to wells directly without a media change. Cells were incubated for a further 48 hours and nitric oxide release was measured using the Griess Reaction.

[4] = test system: EOC 13.31 microglia cells; experiment: NO release inhibition in LPS/IFNγ stimulated microglia, concurrent treatment, Griess reaction at 24 hours (Example 6); conditions: 24 hours; for NO release, Avg: 50 μM; for inhibition at 50 µM: Microglia
Method: The purpose of this experiment was to screen compounds 3, 4, 21, 26, 51, 52, 66, and 78 for their ability to inhibit Nitric oxide release from microglia. […] EOC 13.31 microglia cells were plated into 96 well plates for 24 hours. Confluent cells were treated with 50 μM of the bis- and tris-dihydroxyaryl compounds either with or without stimulation at 1 pg/ml LPS, and 1 ng/ml IFNγ. NO release was measured at 24 hours using the Griess reaction which is a spectrophotometric measure of NO release (reagents from Promega).

[5] = single replicates, read-out: % inhibition
[6] = 50 uM compound, TNF-α release, 10 ug LPS and 10 ng IFNγ, 24 hours, 50 µM
[7] = 50 uM compound, TNF-α release, 10 ug LPS and 10 ng IFNγ, 24 hours
[8] = 50 uM compound, 10 ug LPS and 10 ng IFNγ, 24 hours
[9] = 50 μM pretreatment, read-out: inhibition of NO release following pretreatment
[10] = 50 uM pretreatment 24 hours, then LPS/IFNγ 48 hours, single replicates
[11] = 50 uM pretreatment 24 hours, then LPS/IFNγ 48 hours, read-out: Avg % Inhibition
[12] = 50 uM pretreatment 24 hours, then LPS/IFNγ 48 hours, single replicates, read-out: % inhibition

SMILES	μM NO release Avg [1] [µM]	% inhibition ([1]; single replicates)	inhibition at 50 µM ([1]; read-out: Avg. % Inhibition) [%]	inhibition at 50 µM (microglia) [%]	% inhibition [2, 6]	Avg % Inhibition [2, 7] [%]	TNF-α ELISA raw reading (not NO; the printed μM unit is unsupported) [2, 8]	further results
Oc1ccc(CN[C@@H]2CCCC[C@H]2NCc2ccc(O)c(O)c2)cc1O (relative stereo) [Compound 12, N,N′-bis(3,4-dihydroxybenzyl)-trans-1,2-diaminocyclohexane]	18.976	26.72% and 33.23%	31.6	32	15.81% and 25.24% and 10.54%			inhibition of NO release, in words ([1]; 50 uM, LPS/IFNγ stimulated microglia): effective inhibitors of NO release; inhibition at 50 µM [1, 5]: 34.9%; inhibition at 50 µM ([2]; 24 h, 50 uM compound, TNF-α release, 10 ug LPS and 10 ng IFNγ, 24 hours, read-out: Avg % Inhibition): 17.2%
Oc1ccc(Cc2ccc(O)c(O)c2)cc1O [Compound 3-2]					28.11% and 32.65% and 27.48%	29.41	0.593 µM and 0.627 µM and 0.623 µM	
Oc1ccc(CCc2ccc(O)c(O)c2)cc1O [Compound 4-3]					88.39% and 91.14% and 90.14%	89.89	0.177 µM and 0.185 µM and 0.199 µM	inhibition of TNF-α release ([2]; 50 μM for 1 hour, then 10 μg/ml LPS + 10 ng/ml IFNγ for 24 hours): 89%
Cc1nc(-c2ccc(O)c(O)c2)cc(-c2ccc(O)c(O)c2)c1C#N [Compound 8, 4,6-bis(3,4-dihydroxyphenyl)-3-cyano-2-methylpyridine]	25.265	8.03% and 2.30% and 9.14%	6.49	92				
Oc1ccc(CN2CCN(Cc3ccc(O)c(O)c3)CC2)cc1O [Compound 9, 1,4-bis(3,4-dihydroxybenzyl)piperazine]	26.299	−0.57% (2×) and 9.14%	2.66	3				
CN1C2CCC1C(Cc1ccc(O)c(O)c1)C(=O)C2Cc1ccc(O)c(O)c1 (centres unmarked) [Compound 19, 2,4-bis(3,4-dihydroxybenzyl)-3-tropinone]	25.828	5.75% and 3.45%	4.41	4				inhibition at 50 µM [1, 5]: 4.02%; inhibition at 50 µM [3, 9]: > 75%
CN1C2CCC1C(Cc1ccc(O)c(O)c1)C(=O)C2Cc1ccc(O)c(O)c1 (centres unmarked) [Compound 19-2]					7.78% and 8.44% and 12.05%	9.42	0.730 µM and 0.708 µM and 0.734 µM	Avg % Inhibition ([3]; 50 uM pretreatment 24 hours, then LPS/IFNγ 48 hours): 82.93%; % inhibition [3, 10]: 73.11% and 91.80% and 83.87%; OD values (printed under head μM NO release) [3, 10]: 0.135 and 0.161 and 0.195; μM NO release [3, 10]: 1.620 µM and 3.188 µM and 5.313 µM
O=C(NCc1ccc(O)c(O)c1)C(=Cc1ccc(O)c(O)c1)NC(=O)c1ccc(O)c(O)c1 [Compound 21-2]					−25.92% and −23.45% and −20.16%	−23.18	0.924 µM and 0.904 µM and 0.939 µM	
O=C(Nc1ccc(O)c(O)c1)c1ccc(O)c(O)c1 [Compound 51, 3,4-dihydroxybenzoic acid 3,4-dihydroxyanilide]								NO release, Avg ([4]; Compound + LPS/IFNγ): 20.6633 µM; NO release, Avg ([4]; Compound Only (without LPS/IFNγ)): 1.2500 µM; inhibition at 50 µM ([4]; Compound + LPS/IFNγ, read-out: % inhibition of NO release): -11%; inhibition at 50 µM ([4]; Table 2 summary, LPS/IFNγ, read-out: % Inhibition (summary of inhibition of NO release)): -11%; % inhibition [3, 10]: 47.81% and 59.20%; inhibition at 50 µM [3, 11]: 56%; inhibition at 50 µM [3, 12]: 61.1%
O=C(Nc1ccc(O)c(O)c1)c1ccc(O)c(O)c1 [Compound 51-1]					−17.57% and −12.94% and −13.42%		0.880 µM and 0.883 µM and 0.909 µM	Avg % Inhibition [2, 6]: −14.64%
O=C(Nc1ccc(O)c(O)c1)c1ccc(O)c(O)c1 [Compound 51-4]					−20.13% and −17.25% and −11.34%		0.907 µM and 0.870 µM and 0.925 µM	Avg % Inhibition [2, 6]: −16.24%
O=C(CCC(=O)Nc1ccc(O)c(O)c1)Nc1ccc(O)c(O)c1 [Compound 66-2]					−14.08% and −17.70% and −9.32%	−13.70	0.889 µM and 0.838 µM and 0.867 µM	
O=C(Nc1ccc(O)c(O)c1)Nc1ccc(O)c(O)c1 [Compound 76, 1,3-bis(3,4-dihydroxyphenyl)urea]	23.745	11.52% and 12.60%	14.4	14				inhibition at 50 µM [1, 5]: 19.1%; % inhibition [3, 10]: 75.64% and 78.81%; inhibition at 50 µM [3, 11]: 76.3%; inhibition at 50 µM [3, 12]: 74.4%; inhibition at 50 µM [3, 9]: > 75%
O=C(Nc1ccc(O)c(O)c1)Nc1ccc(O)c(O)c1 [Compound 76-2]					−8.66% and −11.12% and −9.64%	−9.81	0.849 µM and 0.840 µM and 0.834 µM	
O=C(NCc1ccc(O)c(O)c1)Nc1ccc(O)c(O)c1 [Compound 77, 1-(3,4-dihydroxyphenyl)-3-(3,4-dihydroxybenzyl)urea]	24.398	9.89%	12.1	12				inhibition at 50 µM [1, 5]: 14.2%; % inhibition [3, 10]: 99.39%; inhibition at 50 µM [3, 11]: 96.8%; inhibition at 50 µM [3, 12]: 91.8%; inhibition at 50 µM [3, 9]: > 75%
O=C(NCc1ccc(O)c(O)c1)Nc1ccc(O)c(O)c1 [Compound 77-1]					4.66% and 4.16% and −1.10%	2.58	0.756 µM and 0.788 µM and 0.753 µM	
C[C@@H]1C[C@H]2[C@@H]3CCC4=CC(=O)C=C[C@]4(C)[C@@]3(F)[C@@H](O)C[C@]2(C)[C@@]1(O)C(=O)CO [Dexamethasone, reference compound]								inhibition at 50 µM ([2]; 50 μM for 1 hour, then 10 μg/ml LPS + 10 ng/ml IFNγ for 24 hours, read-out: inhibition of TNF-α release): 72.4%
